Measured values reported in patent publication US11491165B2 (Kinoxis Therapeutics Pty Ltd, priority 2016, dated 2022).

Legend:
[1] = target: T1, oxytocin receptor (OXTR), hOTR (Homo sapiens, UniProt P30559); experiment: Competition radioligand binding, [3H]-oxytocin, OTR-expressing HEK293 membranes; conditions: [3H]-oxytocin 10 nM, 90 min 4 °C
T1 construct: expressed in transfected cells
T1 sequence (P30559 1-389): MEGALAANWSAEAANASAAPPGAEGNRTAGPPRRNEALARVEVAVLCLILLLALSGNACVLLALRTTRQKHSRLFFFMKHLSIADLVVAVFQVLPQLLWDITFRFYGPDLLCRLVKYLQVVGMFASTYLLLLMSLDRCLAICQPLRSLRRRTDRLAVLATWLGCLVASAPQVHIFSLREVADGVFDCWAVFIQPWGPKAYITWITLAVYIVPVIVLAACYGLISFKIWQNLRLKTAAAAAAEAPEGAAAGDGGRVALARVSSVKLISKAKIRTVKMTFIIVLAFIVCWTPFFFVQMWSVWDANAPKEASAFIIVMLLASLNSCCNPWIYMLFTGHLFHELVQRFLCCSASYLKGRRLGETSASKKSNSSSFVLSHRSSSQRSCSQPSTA
Description: (§1) Human embryonic kidney cells (HEK-293) transfected to stably express untagged hOTR and V1aR using the Flp-In™ T-REx™ system (Life Technologies, Carlsbad, Calif. USA) were established as reported in Jorgensen et al., 2016 (the entire disclosure of which is hereby incorporated by reference). Cells were subsequently maintained in 10% DMEM containing hygromycin (80 μg/ml), penicillin (100 U/ml), streptomycin (0.1 mg/ml) and blasticidine S hydrochloride (15 μg/ml).
(§2) To induce receptor expression, cells were incubated with tetracycline (2 μg/mL) for 48 h. PBS with 5 mM EDTA (pH 7.4) was used to detach OTR and V1aR-expressing HEK293 cells from culture flasks. Harvested cells were centrifuged at 1200 g for 5 min and were resuspended in homogenization buffer (50 mM HEPES, 5 mM EDTA, 5 mM MgCl2; pH 7.4) prior to homogenization using an Ultra-Turrax homogeniser (IKA, Wilmington, N.C., USA). Homogenates were centrifuged three times for 30 min at 48.000 g, 4° C. for 30 min and membrane pellets resuspended in 50 mM Tris HCl, 5 mM MgCl2 (pH 7.4). A bicinchoninic acid assay was used according to the manufacturer's protocol (Bio-Rad, Hercules. Calif., USA) to measure final protein concentration. Membranes were stored at −80° C. until use in competition radioligand binding studies.
(§3) Reactions were incubated for 90 min at 4° C. to reach equilibrium, and terminated by rapid filtration over glass fibre filters (Whatman GF/A […]; Millipore, Darmstadt, Germany), and washing with ice-cold reaction buffer. Filters were dried, then incubated with Microscint 0 (Perkin Elmer) for 30 min before radioactivity was detected with a Microbeta2 2450 microplate-reader (Perkin Elmer). […] Specific binding in the presence of compounds was expressed as a percentage of specific binding in the presence of vehicle control. A sum-of-squares F-test was used to compare the goodness of fit of one-site, two-site and sigmoidal with variable hill slope binding models, and to calculate Ki's using Graphpad Prism (Graphpad Software, La Jolla, Calif., USA).

[2] = target: T1, oxytocin receptor (OXTR), hOTR; experiment: IP1 accumulation assay, OTR-expressing HEK-293 cells (agonist and antagonist assessment); type: cell-based; conditions: for EC50 / EC50 (OXTR agonist potency, mean ± s.d.): agonist assessment; for EC50: IP1, 1 h; for IC50: antagonist assessment vs OT 30 nM (~EC70); for IC50 / EC50 (OXTR agonist potency, mean ± s.d.): IP1; for Emax: HEK293, read-out: OXTR Emax (% OXT); for OV function: ratio of OXTR functional potency to V1aR functional potency, 'OT only' = function at OXTR only
Description: as §1
(§4) OTR or V1aR-expressing HEK-293 cells were seeded onto poly-L-lysine (100 μg/ml)-coated 384-well plates at a density of 8.75×10^3 cells per well. Cells were incubated in tetracycline (2 μg/mL) for 48 h to induce receptor expression. Intracellular IP1 levels induced by activation of the Gq protein coupled to the OTR and V1aR was indexed using the HTRF IP-One kit (CisBio International, Bedford, Mass., USA), according to manufacturer's protocol. For agonist assessment, cells were incubated with logarithmically-spaced concentrations of compounds (1 nM-100 μM) for 1 h prior to the addition of Ab-Cryptate and IP1-d2 for 1 h. The contents of each well were transferred to a white-walled proxy plate (Perkin Elmer) and fluorescence read using a Pherastar Microplate reader (BMG Labtech, Cary, N.C., USA). For antagonist assessment, cells were incubated an ˜EC70 concentration of OT (30 nM) or AVP (25 nM) mixed with compounds (1 nM-100 μM) or vehicle control for 1 h. IP1 levels in the presence of compounds and OT or AVP were expressed as a percentage of levels seen with OT or AVP in the presence of vehicle control. Concentration response curves for OT and AVP were determined after 5 min incubation in drug or vehicle, and the data fitted using GraphPad PRISM to a 4-parameter logistic equation of the form y=Min+(Max−Min)/(1+10^((logEC50−X)*n)) where X is drug concentration and n is the H-ill slope. Data represent the mean±s.d. of at least 3 independent experiments, each in duplicate.

[3] = target: T2, vasopressin 1a receptor (V1aR) (Homo sapiens, UniProt P37288); experiment: IP1 accumulation assay, V1aR-expressing HEK-293 cells (agonist and antagonist assessment); type: cell-based; conditions: for EC50: agonist assessment, IP1, 1 h; for IC50: antagonist assessment vs AVP 25 nM (~EC70), IP1
T2 construct: expressed in transfected cells
T2 sequence (P37288 whole entry): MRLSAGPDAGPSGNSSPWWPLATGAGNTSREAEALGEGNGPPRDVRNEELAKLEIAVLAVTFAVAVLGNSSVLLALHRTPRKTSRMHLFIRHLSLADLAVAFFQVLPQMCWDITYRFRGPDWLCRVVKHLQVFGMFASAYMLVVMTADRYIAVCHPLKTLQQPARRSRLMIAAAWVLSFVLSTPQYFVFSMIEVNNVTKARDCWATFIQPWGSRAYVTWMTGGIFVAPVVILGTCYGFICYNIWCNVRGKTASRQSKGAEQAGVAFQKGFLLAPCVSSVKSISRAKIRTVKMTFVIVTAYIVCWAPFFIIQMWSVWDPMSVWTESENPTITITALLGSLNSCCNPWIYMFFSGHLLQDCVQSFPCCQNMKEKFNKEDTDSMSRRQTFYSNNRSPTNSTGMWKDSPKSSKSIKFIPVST
Description: Cells were subsequently maintained in 10% DMEM containing hygromycin (80 μg/ml), penicillin (100 U/ml), streptomycin (0.1 mg/ml) and blasticidine S hydrochloride (15 μg/ml).
as §4, with “Cells” for “OTR or V1aR-expressing HEK-293 cells were seeded onto poly-L-lysine (100 μg/ml)-coated 384-well plates at a density of 8.75×10^3 cells per well. Cells”, “For antagonist assessment, cells were incubated an ˜EC70 concentration of OT (30 nM) or AVP (25 nM) mixed with compounds (1 nM-100 μM) or vehicle control for 1 h.” left out

[4] = target: T2, vasopressin 1a receptor (V1aR); experiment: Competition radioligand binding, [3H]-vasopressin, V1aR-expressing HEK293 membranes; conditions: [3H]-vasopressin 2 nM, 90 min 4 °C
Description: as §1, §2, §3

SMILES | Ki [1] | EC50 [2] | IC50 [2] | EC50 [3] | IC50 [3] | Ki [4] | melting point | Emax [2] | EC50 (OXTR agonist potency, mean ± s.d.) [2] | OV function [2]
Cn1ncc2c1Nc1ccccc1N(C(=O)C1CC1)C2 [CA3 (KA), cyclopropyl(1-methyl-4,10-dihydrobenzo[b]pyrazolo[3,4-e][1,4]diazepin-5 (1H)-yl)methanone] | > 10 µM | > 10 µM | > 10 µM | > 10 µM | > 10 µM | 3.37 ± 0.74 µM | 207 to 209 °C |  |  | 
Cn1ncc2c1Nc1ccccc1N(C(=O)c1cc(F)cc(F)c1)C2 [WJ0681, (3,5-Difluorophenyl)(1-methyl-4,10-dihydrobenzo[b]pyrazolo[3,4-e][1,4]diazepin-5 (1H)-yl)methanone] | 0.755 ± 0.164 µM | 0.521 ± 0.0352 µM |  | > 10 µM | 2.21 ± 0.406 µM | 0.0478 ± 0.0094 µM | 290 to 292 °C (dec.) | 10.9% | 0.2727 ± 0.0694 µM | 0.24
Cc1ccc(CN2Cc3cnn(C)c3Nc3ccccc32)cc1C [WJ05105, 5-(3,4-Dimethylbenzyl)-1-methyl-1,4,5,10-tetrahydrobenzo[b]pyrazolo[3,4-e][1,4]diazepine] | > 10 µM | > 10 µM | > 10 µM | > 10 µM | > 10 µM | > 10 µM | 171 to 173 °C |  |  | 
Cn1ncc2c1Nc1ccccc1N(S(=O)(=O)c1ccc(Cl)cc1)C2 [WJ0633, 5-((4-Chlorophenyl)sulfonyl)-1-methyl-1,4,5,10-tetrahydrobenzo[b]pyrazolo[3,4-e][1,4]diazepine] | > 10 µM | > 10 µM | > 10 µM | > 10 µM | > 10 µM | > 10 µM | 206 to 208 °C |  |  | 
Cc1ccc(C(=O)N2Cc3cnn(C)c3Nc3ccccc32)cc1F [WJ0683, (3-Fluoro-4-methylphenyl)(1-methyl-4,10-dihydrobenzo[b]pyrazolo[3,4-e][1,4]diazepin-5 (1H)-yl)methanone] | 0.103 ± 0.031 µM | 0.0962 ± 0.0229 µM |  | > 10 µM | 1.14 ± 0.165 µM | 0.0078 ± 0.0009 µM | 235 to 237 °C | 11.3% | 0.2837 ± 0.0224 µM | 0.085
COc1ccc(C(=O)N2Cc3cnn(C)c3Nc3ccccc32)cc1 [WJ0661, (4-Methoxyphenyl)(1-methyl-4,10-dihydrobenzo[b]pyrazolo[3,4-e][1,4]diazepin-5 (1H)-yl)methanone] | 0.272 ± 0.0876 µM | 0.197 ± 0.0603 µM |  | > 10 µM | 0.462 ± 0.136 µM | 0.024 ± 0.0034 µM | 296 to 298 °C (dec.) | 8.14% | 0.2038 ± 0.0548 µM | 0.43
COc1ccc2c(c1)N(C(=O)c1ccccc1)Cc1cnn(C)c1N2 [WJ07117MeO, (7-Methoxy-1-methyl-4,10-dihydrobenzo[b]pyrazolo[3,4-e][1,4]diazepin-5 (1H)-yl)(phenyl)methanone] | > 10 µM | > 10 µM | > 10 µM | > 10 µM | > 10 µM | 0.374 µM | 248 to 250 °C |  |  | 
Cc1ccc(C(=O)N2Cc3cnn(C)c3Nc3ccccc32)cc1 [WJ0653, (1-Methyl-4,10-dihydrobenzo[b]pyrazolo[3,4-e][1,4]diazepin-5 (1H)-yl)(p-tolyl)methanone] | 0.149 ± 0.0434 µM | 0.0853 ± 0.0265 µM |  | > 10 µM | 0.71 ± 0.267 µM | 0.0124 ± 0.0024 µM | 265 °C (dec.) | 9.54% | 0.2388 ± 0.0387 µM | 0.12
Cn1ncc2c1Nc1ccccc1N(C(=O)C13CC4CC(CC(C4)C1)C3)C2 [WJ0687, ((3r,5r,7r)-Adamantan-1-yl)(1-methyl-4,10-dihydrobenzo[b]pyrazolo[3,4-e][1,4]diazepin-5 (1H)-yl)methanone] | > 10 µM | 4.88 ± 0.141 µM |  | > 10 µM | > 10 µM | 0.377 ± 0.106 µM | 283 to 285 °C | 33.3% | 0.834 ± 0.0611 µM | 
Cc1ccc(C(=O)N2Cc3cnn(C)c3Nc3ccccc32)cc1C [WJ5103, (3,4-Dimethylphenyl)(1-methyl-4,10-dihydrobenzo[b]pyrazolo[3,4-e][1,4]diazepin-5 (1H)-yl)methanone] | 0.117 ± 0.0124 µM | 0.109 ± 0.0177 µM |  | > 10 µM | 0.346 ± 0.0909 µM | 0.014 ± 0.002 µM | 254 to 256 °C (dec.) | 5.87% | 0.147 ± 0.0643 µM | 0.37
CCc1ccc(C(=O)N2Cc3cnn(C)c3Nc3ccccc32)cc1 [TRGA99, (4-ethylphenyl)(1-methyl-4,10-dihydrobenzo[b]pyrazolo[3,4-e][1,4]diazepin-5 (1H)-yl)methanone] | 0.022 ± 0.008 µM | 0.041 ± 0.015 µM |  | > 10 µM | 1.65 ± 0.075 µM | 0.0018 ± 0.0006 µM |  | 8% |  | 0.02
Cn1ncc2c1Nc1ccccc1N(C(=O)c1ccc(Cl)c(Cl)c1)C2 [WJ0824, (3,4-Dichlorophenyl)(1-methyl-4,10-dihydrobenzo[b]pyrazolo[3,4-e][1,4]diazepin-5 (1H)-yl)methanone] | 1.62 ± 0.243 µM | 0.438 ± 0.127 µM |  | > 10 µM | > 10 µM | 0.455 ± 0.112 µM |  | 12.9% | 0.3218 µM | 
